Measured values reported in patent publication US11591318B2, “Bipyrazole derivatives as JAK inhibitors” (Incyte Corporation, priority 2013, dated 2023).
Structures can show the parent of a compound that is named as a salt.

The compounds below were run on human JAK1 (a.a. 837-1142) (assay: In vitro JAK kinase assay (HTRF), JAK1). Details: ratio of IC50 values at 1 mM ATP.
Type: biochemical
Description: The catalytic activity of JAK1, JAK2 or JAK3 was assayed by measuring the phosphorylation of a biotinylated peptide. The phosphorylated peptide was detected by homogenous time resolved fluorescence (HTRF). […] Reactions were carried out at room temperature for 1 hour and then stopped with 20 μL 45 mM EDTA, 300 nM SA-APC, 6 nM Eu-Py20 in assay buffer (Perkin Elmer, Boston, Mass.). Binding to the Europium labeled antibody took place for 40 minutes and HTRF signal was measured on a Fusion plate reader (Perkin Elmer, Boston, Mass.).

Row | JAK2/JAK1 | Compound
1 | >10 | Cc1[nH]ncc1-c1cnn(C2(CC#N)CN(c3cnc(C(=O)N[C@@H](C)C(F)(F)F)cn3)C2)c1 [Example 1, 5-[3-(Cyanomethyl)-3-(3′-methyl-1H,1′H-4,4′-bipyrazol-1-yl)azetidin-1-yl]-N-[(1S)-2,2,2-trifluoro-1-methylethyl]pyrazine-2-carboxamide trifluoroacetate]
2 | >10 | Cc1n[nH]cc1-c1cnn(C2(CC#N)CN(c3cnc(C(=O)NC(C)C)cn3)C2)c1 [Example 2, 5-[3-(Cyanomethyl)-3-(3′-methyl-1H,1′H-4,4′-bipyrazol-1-yl)azetidin-1-yl]-N-isopropylpyrazine-2-carboxamide trifluoroacetate]
3 | >10 | C[C@H](NC(=O)c1cc(F)c(N2CC(CC#N)(n3cc(-c4cn[nH]c4)cn3)C2)cc1F)C(F)(F)F [Example 5, 4-[3-(1H,1′H-4,4′-Bipyrazol-1-yl)-3-(cyanomethyl)azetidin-1-yl]-2,5-difluoro-N-[(1S)-2,2,2-trifluoro-1-methylethyl]benzamide trifluoroacetate]
4 | >10 | Cc1n[nH]cc1-c1cn(C2(CC#N)CN(c3cnc(C(=O)NC(C)C)cn3)C2)nc1C [Example 6, 5-[3-(Cyanomethyl)-3-(3,3′-dimethyl-1H,1′H-4,4′-bipyrazol-1-yl)azetidin-1-yl]-N-isopropylpyrazine-2-carboxamide trifluoroacetate]
